From article PMC6007452 (Journal of Insect Science, 2018)

T1: HaTreh-1 (soluble trehalase) (Helicoverpa armigera, UniProt A0A6B8YU37)
T1 sequence (A0A6B8YU37 24-571): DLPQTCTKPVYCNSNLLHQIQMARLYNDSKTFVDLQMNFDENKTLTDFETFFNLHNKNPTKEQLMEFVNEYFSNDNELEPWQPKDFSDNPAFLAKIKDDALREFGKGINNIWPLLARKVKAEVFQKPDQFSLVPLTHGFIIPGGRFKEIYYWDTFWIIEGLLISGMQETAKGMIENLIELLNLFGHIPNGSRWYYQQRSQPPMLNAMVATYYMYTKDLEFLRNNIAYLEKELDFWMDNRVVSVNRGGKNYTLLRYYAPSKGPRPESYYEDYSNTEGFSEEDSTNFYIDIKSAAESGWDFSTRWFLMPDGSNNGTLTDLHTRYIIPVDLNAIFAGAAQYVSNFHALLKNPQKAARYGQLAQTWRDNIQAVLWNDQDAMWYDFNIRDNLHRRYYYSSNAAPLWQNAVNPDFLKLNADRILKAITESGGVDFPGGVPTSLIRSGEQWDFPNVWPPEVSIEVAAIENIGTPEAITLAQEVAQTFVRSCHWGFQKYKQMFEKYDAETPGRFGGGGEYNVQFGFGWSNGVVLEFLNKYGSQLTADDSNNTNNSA


Assays:
[1] = target: T1, HaTreh-1 (soluble trehalase); type: biochemical
enzyme kinetics = substrate: OC[C@H]1O[C@H](O[C@H]2O[C@H](CO)[C@@H](O)[C@H](O)[C@H]2O)[C@H](O)[C@@H](O)[C@@H]1O; assay: enzyme kinetics; type: biochemical, Helicoverpa armigera

Molecule | Ki [1] | Km (enzyme kinetics)
O[C@H]1[C@H](O)[C@@H](O)CN2CC[C@H](O)[C@H]12 [castanospermine] | 6.7 µM | –
HaTreh-1 (soluble trehalase) (Helicoverpa armigera) (protein) DLPQTCTKPVYCNSNLLHQIQMARLYNDSKTFVDLQMNFDENKTLTDFETFFNLHNKNPTKEQLMEFVNEYFSNDNELEPWQPKDFSDNPAFLAKIKDDALREFGKGINNIWPLLARKVKAEVFQKPDQFSLVPLTHGFIIPGGRFKEIYYWDTFWIIEGLLISGMQETAKGMIENLIELLNLFGHIPNGSRWYYQQRSQPPMLNAMVATYYMYTKDLEFLRNNIAYLEKELDFWMDNRVVSVNRGGKNYTLLRYYAPSKGPRPESYYEDYSNTEGFSEEDSTNFYIDIKSAAESGWDFSTRWFLMPDGSNNGTLTDLHTRYIIPVDLNAIFAGAAQYVSNFHALLKNPQKAARYGQLAQTWRDNIQAVLWNDQDAMWYDFNIRDNLHRRYYYSSNAAPLWQNAVNPDFLKLNADRILKAITESGGVDFPGGVPTSLIRSGEQWDFPNVWPPEVSIEVAAIENIGTPEAITLAQEVAQTFVRSCHWGFQKYKQMFEKYDAETPGRFGGGGEYNVQFGFGWSNGVVLEFLNKYGSQLTADDSNNTNNSA | – | 72.8 mM
